Source: US7300925B2, “2-ethyl and 2-ethylidene-19-nor-vitamin D compounds” (Wisconsin Alumni Research Foundation, priority 2000, dated 2007)
Values joined by “and” are separate entries in the source; they are usually repeats but may differ in a detail not shown here. Equal entries are not always repeated.

Assays:
[1] = tested on: bone calcium mobilization; experiment: bone calcium mobilization (serum Ca) in vitamin D-deficient rats on a low-calcium diet; assay type: in vivo; settings: for Serum Ca (mean ± SEM): vitamin D-deficient rats, low-calcium diet, 24 hours after the last dose
[2] = tested on: intestinal calcium transport; experiment: support of intestinal calcium transport in vitamin D-deficient rats on a low-calcium diet; assay type: in vivo; settings: for Ca transport S/M (mean ± SEM): vitamin D-deficient rats, low-calcium diet, 24 hours after the last dose
[3] = tested on: human promyelocyte HL-60 cells; experiment: induction of differentiation of HL-60 cells into monocytes; assay type: cell-based; settings: compared with 1α,25-(OH)2D3; FIG. 6a, 6b
Description: FIG. 6a is a graph illustrating the percent HL-60 cell differentiation as a function of the concentration of the 2-ethylidene-19-nor-vitamins as compared to 1α,25-dihydroxyvitamin D3; and
FIG. 6b is a graph illustrating the percent HL-60 cell differentiation as a function of the concentration of the 2α and 2β-ethyl-19-nor-vitamins as compared to 1α,25-dihydroxyvitamin D3.
The synthesized vitamins were tested for their ability to bind the porcine intestinal vitamin D receptor. […] In the next assay, the cellular activity of the synthesized compounds was established by studying their ability to induce differentiation of human promyelocyte HL-60 cells into monocytes.

[4] = 130 pmol daily i.p. for seven days
[5] = 260 pmol daily i.p. for seven days
[6] = 65 pmol daily i.p. for seven days

## C=C1/C(=C\C=C2/CCC[C@]3(C)[C@@H]([C@H](C)CCCC(C)(C)O)CC[C@@H]23)C[C@@H](O)C[C@@H]1O [Compound 1, 1α,25-dihydroxyvitamin D3, reference compound]
[1]; [4]
  Serum Ca (mean ± SEM): 5.2 ± 0.2 and 5.1 ± 0.3
[1]; [5]
  Serum Ca (mean ± SEM): 5.8 ± 0.3 and 6.4 ± 0.4 and 5.8 ± 0.1
[2]; [4]
  Ca transport S/M (mean ± SEM): 4.9 ± 0.7 and 5.5 ± 0.5
[2]; [5]
  Ca transport S/M (mean ± SEM): 5.9 ± 0.4 and 6.0 ± 0.9 and 6.5 ± 0.9

## CC=C1C(O)CC(=CC=C2CCCC3(C)C2CCC3C(C)CCCC(C)(C)O)CC1O (stereo not drawn) [Compound 4a, 1α,25-dihydroxy-2(E)-ethylidene-19-nor-vitamin D3]
[1]; [6]
  Serum Ca (mean ± SEM): 4.5 ± 0.1
[1]; [4]
  Serum Ca (mean ± SEM): 5.2 ± 0.2
[2]; [6]
  Ca transport S/M (mean ± SEM): 5.0 ± 0.4
[2]; [4]
  Ca transport S/M (mean ± SEM): 6.8 ± 0.4

## CC=C1[C@H](O)CC(=C/C=C2\CCC[C@@]3(C)C2CCC3[C@@H](C)CCCC(C)(C)O)C[C@H]1O (stereo partly drawn) [Compound 4b, 2-ethylidene-19-nor-(20S)-1α,25-(OH)2D3 (E-isomer)]
[1]; [6]
  Serum Ca (mean ± SEM): 8.2 ± 0.3
[1]; [4]
  Serum Ca (mean ± SEM): 12.1 ± 0.6
[1]; overall judgement of Table 1 (intestine and bone)
  calcemic activity in vivo in rats (in words): especially potent
[3]
  ability to induce differentiation of HL-60 cells into monocytes (in words): more potent than 1α,25-(OH)2D3
[2]; [6]
  Ca transport S/M (mean ± SEM): 9.0 ± 0.3
[2]; [4]
  Ca transport S/M (mean ± SEM): 5.8 ± 0.8

## CC=C1C(O)CC(=CC=C2CCCC3(C)C2CCC3C(C)CCCC(C)(C)O)CC1O (stereo not drawn) [Compound 5a, 1α,25-dihydroxy-2(Z)-ethylidene-19-nor-vitamin D3]
[1]; [6]
  Serum Ca (mean ± SEM): 4.4 ± 0.2
[1]; [4]
  Serum Ca (mean ± SEM): 4.2 ± 0.0
[2]; [6]
  Ca transport S/M (mean ± SEM): 4.4 ± 0.4
[2]; [4]
  Ca transport S/M (mean ± SEM): 5.7 ± 0.9

## CC=C1[C@H](O)CC(=C/C=C2\CCC[C@@]3(C)C2CCC3[C@@H](C)CCCC(C)(C)O)C[C@H]1O (stereo partly drawn) [Compound 5b, 2-ethylidene-19-nor-(20S)-1α,25-(OH)2D3 (Z-isomer)]
[1]; [6]
  Serum Ca (mean ± SEM): 4.0 ± 0.3
[1]; [4]
  Serum Ca (mean ± SEM): 4.0 ± 0.1
[2]; [6]
  Ca transport S/M (mean ± SEM): 4.3 ± 0.7
[2]; [4]
  Ca transport S/M (mean ± SEM): 3.8 ± 0.3

## CCC1C(O)CC(=CC=C2CCCC3(C)C2CCC3C(C)CCCC(C)(C)O)CC1O (stereo not drawn) [Compound 6a, 2α-ethyl-19-nor-1α,25-(OH)2D3]
[1]; [5]
  Serum Ca (mean ± SEM): 5.1 ± 0.1
[2]; [5]
  Ca transport S/M (mean ± SEM): 4.0 ± 0.4

## CCC1C(O)CC(=CC=C2CCCC3(C)C2CCC3C(C)CCCC(C)(C)O)CC1O [Compound 6b, 2α-ethyl-19-nor-(20S)-1α,25-(OH)2D3]
[1]; [5]
  Serum Ca (mean ± SEM): 7.0 ± 0.1
[1]; rats, Table 1
  ability to mobilize calcium from bone (in words): strong calcium mobilization response
[2]; [5]
  Ca transport S/M (mean ± SEM): 5.0 ± 0.4
[2]; rats, Table 1
  intestinal activity (in words): marked intestinal activity

## CCC1C(O)CC(=CC=C2CCCC3(C)C2CCC3C(C)CCCC(C)(C)O)CC1O (stereo not drawn) [Compound 7a, 2β-ethyl-19-nor-1α,25-(OH)2D3]
[1]; [5]
  Serum Ca (mean ± SEM): 5.0 ± 0.1
[2]; [5]
  Ca transport S/M (mean ± SEM): 3.7 ± 0.3

## CCC1C(O)CC(=CC=C2CCCC3(C)C2CCC3C(C)CCCC(C)(C)O)CC1O [Compound 7b, 2β-ethyl-19-nor-(20S)-1α,25-(OH)2D3]
[1]; [5]
  Serum Ca (mean ± SEM): 5.6 ± 0.1
[2]; [5]
  Ca transport S/M (mean ± SEM): 4.1 ± 0.3
